Test results as given in article PMC10107299, “Neutralizing the Impact of the Virulence Factor LecA from Pseudomonas aeruginosa on Human Cells with New Glycomimetic Inhibitors” (Angewandte Chemie (International Ed. in English), 2023).
In brackets after ≈: the same amount, converted by molar mass. Read-outs that look alike come from different tables or passages of the source.

What was measured:
P. aeruginosa PAO1 = assay: Invasion assay of P. aeruginosa PAO1 into H1299 cells; type: cell-based, Pseudomonas aeruginosa; conditions: PAO1 into H1299 cells, N≥4
Procedure: P. aeruginosa is able to invade non‐phagocytic cells via a lipid zipper mechanism.[10] Binding of LecA to the glycosphingolipid Gb3 followed by LecA‐induced receptor clustering plays a crucial role in this process. The LecA ligand 4‐nitrophenyl α‐ D‐galactopyranoside (PNPG) has been previously shown to interfere with these events at a high concentration of 10 mM leading to a reduction of bacterial invasiveness to 30–60 % as compared to untreated bacteria (100 % invasiveness).[10, 31] For invasion assays, H1299 cells were incubated with P. aeruginosa in presence and absence of LecA inhibitors, followed by killing of extracellular bacteria with the antibiotic amikacin. Then, all intracellular bacteria were released by lysis of the human cells and viable bacteria were quantified by plating. To assess the impact of LecA inhibitors on the invasiveness, the influence of the divalent LecA inhibitor L2 on bacterial invasion into host cells was evaluated and compared to PNPG. […] In contrast, the divalent LecA ligand L2 achieved an invasion decrease to 44 % already at 100 μM (Figure 5c). L2 was thus able to reach a similar reduction of invasion at a 100‐fold lower concentration than the one needed for PNPG. […]
lectin-inhibitor solution for 24 h at 37 °C. In order to depict exactly the same position for each wound, marker lines were drawn on the bottom of the 12-well plates for each well. The samples were imaged with an EVOS microscope (PEQLAB by VWR Life Sciences, Avantor […]
Excel. […]
A chromosomally GFP-tagged Gentamicin-resistant Pseudomonas aeruginosa PAO1 strain was cultured (LB medium supplemented with 60 µg/mL Gentamicin, 37 °C, 180 rpm, 16 h) and invasion assays were performed in analogy to Eierhoff et al..[13] 1.5 x 10^4 H1299 cells per well were seeded one day prior to the invasion assay in a 96-well plate with flat bottom. An […]
overnight culture of P. aeruginosa was centrifuged for 5 min at 3000 x g, washed with PBS (- /-) and re-suspended in RPMI 1640 medium. The newly synthesized divalent LecA ligand L2 was compared to 4-nitrophenyl α-D-galactopyranoside (PNPG; Sigma-Aldrich, Chemie GmbH, Darmstadt, Germany). […]
Subsequently, cells were washed three times with DPBS and lysed by incubation with 0.25% (v/v) Triton X-100 (Carl Roth GmbH & Co. KG, Karlsruhe, Germany) for 5 min at 37 °C and 180 rpm. […] Bacterial colonies were counted the next day. […] The invasion rate was calculated as the number of intracellularly localized bacteria divided by the total number of non-treated bacteria, bacteria that were not treated with any ligands and neither amikacin, thus the number of P. aeruginosa that successfully invaded or stayed attached to the host cells. Experiments were repeated independently at least four times (N ≥ 4) and evaluated […]

P. aeruginosa = tested on: P. aeruginosa; set-up: method as in PMID 25136128, PMID 25044671; conditions: 10 mM; cited from earlier work
[1] = Kinetic solubility in TBS/Ca2+ buffer (HPLC-MS); type: physicochemical; conditions: aqueous buffer, kinetic from dmso stock; TBS/Ca2+ buffer pH 7.4, 1 % DMSO, N≥3; read-out: Solubility S (kinetic)
Procedure: Next, we quantified the solubility of at least one representative of each new class and of one parent bisacylhydrazone in aqueous media (Table 1). […]
TBS/Ca2+ buffer (20 mM Tris, 137 mM NaCl, 2.6 mM KCl at pH 7.4 supplemented with 1 mM […]
CaCl2) in presence of 25% DMSO. […]
Kinetic solubility was determined on the analytical HPLC-MS using Compass QuantAnalysis quantification software (Bruker). Samples were prepared from DMSO stock solutions by dilution with TBS/Ca2+ buffer to 100 µM with 1% DMSO present. Samples were incubated on a shaker for 1 h at r.t., centrifuged (21380 g, 20 min), supernatants were diluted with DMSO (1:3), analyzed by HPLC-MS and fitted to the individual calibration curves.
Every experiment was repeated independently at least three times. […]

[2] = In vitro metabolic stability, mouse liver microsomes; type: in vitro ADME; conditions: N=3, read-out: CLint MLM
Procedure: (§1) Acetonitrile and caffeine were dispensed using a Mantis Formulatrix. Then samples were centrifuged for 20 min at 2.270 x g at 4 °C and the supernatants were transferred to 96-well Greiner V-bottom plates. Peak areas of each compound and of the internal standard were analyzed using the MultiQuant 3.0 software (AB Sciex). Peak areas of the respective compound were normalized to the internal standard peak area and to the respective peak areas at time point 0 min: (C/D)/(A/B) with A: peak area of the compound at time point 0 min, B: peak area of the internal standard at time point 0 min, C: peak area of the compound at the respective time point, D: peak area of the internal standard at the respective time point.
(§2) In vitro metabolic stability assay
(§3) Liver microsomes (mouse and human, Thermo Fisher) were thawed slowly on ice. 20 mg/mL of microsomes, 2 µL of a 100 µM solution of every compound and 183 µL of 100 mM phosphate buffer were incubated 5 min at 37 °C in a water bath. Reactions were initiated using 10 µL of 20 mM NADPH (CarlRoth). Samples were incubated in three replicates at 37 °C under gentle agitation at 150 rpm. At 0, 5, 15, 30, and 60 min, reactions were terminated by the addition of 180 µL acetonitrile using a Mantis Formulatrix dispenser. Samples were vortexed for 5 min using an Eppendorf MixMate vortex mixer and centrifuged at 2.270 x g for 20 min at 4 °C. The supernatants were transferred to 96-well Greiner V-bottom plates, sealed and analyzed according to the section HPLC-MS analysis. Peak areas of the respective time point of the compounds were normalized to the peak area at time point 0 min. Then half-life was calculated using linear regression (Microsoft Excel). Clint [µL/min/mg protein] was calculated using the following formula: […]

[3] = In vitro metabolic stability, human liver microsomes; type: in vitro ADME; conditions: N=3, read-out: CLint HLM
Procedure: We then determined the in vitro metabolic stability in plasma and liver microsomes as well as plasma protein binding for a selected subset of the synthesized LecA inhibitors, i.e. D1, D2, H1, H2 and L2 and compared them to the parent bisacylhydrazone 14 (Table 2). […] The metabolic stability of the compounds differed in presence of human liver microsomes (HLM). Introduction of a pyridine ring decreased stability (H1 CLint=28.6 μL min^−1/mg protein, H2 CLint=32.5 μL min^−1/mg protein) compared to the benzene analogues (D1 CLint=21.9 μL min^−1/mg protein, D2 CLint=21.0 μL min^−1/mg protein) and to the parent acylhydrazone 14 (CLint=19.6 μL min^−1/mg protein). […]
as §1, with “mixer (Eppendorf). Acetonitrile” for “Acetonitrile”
as §2, §3

in vitro = in vitro ADME; conditions: pH 7.4, 37 °C
Procedure: Then, we analyzed the stability of the compounds in plasma. […] The observed increase in plasma stability of the tested amide derivatives compared to bisacylhydrazone 14 supports our design hypothesis for the isosteric replacement of the bisacylhydrazone linking motif. […]
Each compound dissolved in DMSO was added to mouse plasma (pH 7.4, 37 °C) or to human plasma (pH 7.4, 37 °C) to yield a final concentration of 1 µM. In addition, procaine and procainamide (dissolved in DMSO) were added to mouse plasma or to human plasma (pH 7.4, 37 °C) to yield a final concentration of 1 µM. Procaine served as positive control as it is unstable in mouse plasma. Procainamide served as negative control as it is stable in mouse plasma. The samples were incubated for 0 min, 15 min, 30 min, 60 min, 90 min, 120 min and 240 min at 37 °C. At each time point, 10 µl of the respective sample was extracted with 90 µL acetonitrile containing 12.5 ng/mL caffeine as internal standard for 5 min at 2000 rpm on a MixMate vortex […]
as §1, with “mixer (Eppendorf). Acetonitrile” for “Acetonitrile”, “point. […]” for “point.”
2 hours at 800 rpm on an Eppendorf MixMate vortex-mixer. Then samples were withdrawn from the respective chambers. To 25 µL of each dialysis sample, 25 µL of plasma and to 25 µL of plasma sample, 25 µL of dialysis buffer was added. Then 150 µL ice-cold extraction solvent (ACN/H2O (90:10) containing 12.5 ng/mL caffeine as internal standard) was added. Samples were incubated for 30 min on ice. Then samples were centrifuged at 4 °C at 2270 x g for 10 min.

## O=[N+]([O-])c1ccc(O[C@H]2O[C@H](CO)[C@H](O)[C@H](O)[C@H]2O)cc1 [PNPG, 4-nitrophenyl α-D-galactopyranoside, reference compound]
P. aeruginosa PAO1; 100 μM inhibitor
  Bacterial invasiveness (untreated bacteria 100 %): 89%
P. aeruginosa PAO1; 10 mM inhibitor
  Bacterial invasiveness (untreated bacteria 100 %): 44%
P. aeruginosa
  Bacterial invasiveness (untreated bacteria 100 %): 30–60%

## O=C(N/N=C/c1ccc(OCCOc2ccc(/C=N/NC(=O)c3ccc(O[C@@H]4O[C@H](CO)[C@H](O)[C@H](O)[C@H]4O)cc3)cc2)cc1)c1ccc(O[C@@H]2O[C@H](CO)[C@H](O)[C@H](O)[C@H]2O)cc1 [Compound 14, reference compound]
[1]
  solubility kinetic at 1 h: 1.6 ± 0.4 µM (≈ 1.38 µg/mL)
[2]
  microsomal CLint at 1 µM: < 23 µL/min/mg
[3]
  microsomal CLint at 1 µM: 19.6 µL/min/mg
In vitro; human plasma, read-out: Plasma stability t1/2 Human
  half-life at 1 µM: 2.06 h
In vitro; mouse plasma, read-out: Plasma stability t1/2 Mouse
  half-life at 1 µM: 0.815 h
